Source: patent US9649324B2, “Use of tylvalosin as antiviral agent” (ECO ANIMAL HEALTH LIMITED, priority 2006, dated 2017)

Key:
[1] = orally administered, in vivo (Okamoto et al., 1981); cited from earlier work
PRRSV strain, VR2385 = assay: Efficacy of tylvalosin in feed for the control of PRRSV in challenged pigs (Example 14); assay type: in vivo, pig; settings: for Mean maximum respiratory score: score 0-6
pig white blood cells = assay: Intracellular accumulation in pig white blood cells; assay type: in vitro ADME
Procedure: Pig blood was collected in Heparin-coated BD vacutainers (6). 20 mL of blood and 30 mL of phosphate buffered saline (PBS) were mixed in a 50 mL conical centrifuge tube. This was repeated in order to obtain 3 such tubes. The mixtures were centrifuged for 10 min at 2050×g. The white blood cells, together with some red blood cells below, were harvested into a 50 mL conical centrifuge tube. PBS was added to about 50 mL. A 63% solution of Percoll was made as follows: 6.3 mL Percoll (Sigma), 1.0 mL 1.5 M NaCl, 2.7 mL H2O. 10 mL of 63% Percoll was added to each of two 50 mL conical centrifuge tubes. 25 mL of the resuspended white blood cells were carefully layered on top of the each of the Percoll solutions. A sharp interface was produced. The material was centrifuged at 3000×g for 10 min. […] The white blood cells were harvested in PBS (50 mL) and centrifuged at 500×g for 10 min. The cell pellet was resuspended in medium (Glasgow minimum essential medium containing penicillin and streptomycin). A viable cell count was made using trypan blue. The same method used for isolation of pig WBCs was used for the chicken WBCs, with the exception that heparin (100 I.U./mL) was prepared and mixed with an equal volume of chicken whole blood.
Cells were incubated with 10 mg/mL of each antibiotic. All tubes were placed on a rotary mixing machine, at 37° C. Supernatant and cell samples were harvested at the times described in the figure legends. Duplicate samples were used for each antibiotic for each time point.
All the supernatant and cell samples were transported frozen (at approximately −20° C.) to York Bioanalytical Solutions (York, England) for analysis. Briefly, 0.25 g of buffer (RPMI medium containing 10% FCS) was weighed into a polypropylene tube. A 50 μL volume of the appropriate working solution was added to the quality control (QC) samples. Methanol (50 μL) was added to each blank sample used for preparation of calibration standards, recovery samples and reagent blanks. A 2.5 mL volume of 0.1 M phosphate buffer was added to each sample, vortex mixed for approximately 1 min and then centrifuged at 3220×g for 10 min at 4° C.
For the liquid-liquid clean-up phase, an aliquot (100 μL) of the supernatant was transferred to a polypropylene tube. The pH was adjusted to pH 8-8.5 by the addition of 0.1 M NaOH, and vortex mixed. Ethyl acetate (5 mL) was added and after capping, the whole mixture was shaken for 10 min and then centrifuged at 3220×g for 10 min at 4° C.
Ammonium acetate (20 mM; pH native)—formic acid, 1000:3, v/v (100 μL) was added to each well in a 2 mL polypropylene collection plate. An aliquot of the ethyl acetate mixture (100 μL) was transferred to the polypropylene collection plate and evaporated under nitrogen (40° C.) until the ethyl acetate was fully evaporated whilst the ammonium acetate remained. Methanol (100 μL) was added to each well, excluding the calibration standards.
To each well containing a calibration standard, 100 μL of the appropriate calibration working solution was added. Samples were then vortex mixed for at least 10 min and submitted for liquid chromatography with tandem mass spectrometric analysis. The method stated was applicable to the samples of media (and the calibration standards and quality control samples).
For the cells, the sample tubes were weighed, and 100 μL of acetonitrile was added. The samples were vortex mixed for 10 sec, then centrifuged at 10285×g at 4° C. for 5 min. The sample was transferred to a polypropylene tube. The original sample tube was washed with 0.1 M phosphate buffer (1 mL). This was transferred to the polypropylene tube. A second wash of 1 mL was made, then a final wash of 0.5 mL. The polypropylene tube was now at the same stage as the end of the liquid extraction, but with the cells present rather than media. This was then taken through the sample preparation as described above. […]

[2] = Group 1, 100 ppm in feed, Trial Day 17
[3] = Group 1, 100 ppm in feed, Trial Day 28
[4] = Group 2, 200 ppm in feed, Trial Day 17
[5] = Group 2, 200 ppm in feed, Trial Day 28
[6] = Group 3, 600 ppm in feed, Trial Day 17
[7] = Group 3, 600 ppm in feed, Trial Day 28

SMILES: CCC1OC(=O)CC(OC(C)=O)C(C)C(OC2OC(C)C(OC3CC(C)(O)C(OC(=O)CC(C)C)C(C)O3)C(N(C)C)C2O)C(CC=O)CC(C)C(=O)C=CC(C)=CC1COC1OC(C)C(O)C(OC)C1OC (stereo not shown) [tylvalosin, 3-O acetyl-4″-O-isovaleryltylosin]
- blood levels [1]: higher blood levels than tylosin
- severity of macroscopic pneumonia (PRRSV strain, VR2385; 100, 200, 600 ppm in feed versus non-treated controls): No differences
- Mean average rectal temperature (PRRSV strain, VR2385; Group 1, 100 ppm in feed): 103.6 ± 0.1
- Mean maximum rectal temperature (PRRSV strain, VR2385; Group 1, 100 ppm in feed): 104.5 ± 0.2 A
- Mean microscopic PRRSV lung lesion score (PRRSV strain, VR2385; Group 1, 100 ppm in feed, Necropsy 1 (Trial Day 17, 10 days post infection)): 0.2 ± 0.2 A
- Mean microscopic PRRSV lung lesion score (PRRSV strain, VR2385; Group 1, 100 ppm in feed, Necropsy 2 (Trial Day 28, 21 days post infection)): 2.1 ± 0.4
- Average daily gain (PRRSV strain, VR2385; Group 1, 100 ppm in feed, Trial Day 7): 1.57 ± .09 lbs
- Mean real-time RT-PCR (PRRSV RNA copy numbers in serum) (PRRSV strain, VR2385; Group 1, 100 ppm in feed, Trial Day 10): 15,289.88 B, C
- Average daily gain (PRRSV strain, VR2385; Group 1, 100 ppm in feed, Trial Day 14): 1.5 ± .05 lbs
- Average daily gain (PRRSV strain, VR2385; [2]): 1.59 ± .05 A lbs
- Mean real-time RT-PCR (PRRSV RNA copy numbers in serum) (PRRSV strain, VR2385; [2]): 95,315.72
- Mean real-time RT-PCR (PRRSV RNA copy numbers in serum) (PRRSV strain, VR2385; Group 1, 100 ppm in feed, Trial Day 21): 36,451.13
- Average daily gain (PRRSV strain, VR2385; [3]): 1.42 ± .05 lbs
- Mean real-time RT-PCR (PRRSV RNA copy numbers in serum) (PRRSV strain, VR2385; [3]): 5,301.63
- Mean maximum respiratory score (PRRSV strain, VR2385; Group 1, 100 ppm in feed): 0.5 ± 0.1 A*
- Mean average rectal temperature (PRRSV strain, VR2385; Group 2, 200 ppm in feed): 103.7 ± 0.1
- Mean maximum rectal temperature (PRRSV strain, VR2385; Group 2, 200 ppm in feed): 104.7 ± 0.2 A
- Mean microscopic PRRSV lung lesion score (PRRSV strain, VR2385; Group 2, 200 ppm in feed, Necropsy 1 (Trial Day 17, 10 days post infection)): 2.0 ± 0.3 B
- Mean microscopic PRRSV lung lesion score (PRRSV strain, VR2385; Group 2, 200 ppm in feed, Necropsy 2 (Trial Day 28, 21 days post infection)): 1.9 ± 0.3
- Average daily gain (PRRSV strain, VR2385; Group 2, 200 ppm in feed, Trial Day 7): 1.52 ± .10 lbs
- Mean real-time RT-PCR (PRRSV RNA copy numbers in serum) (PRRSV strain, VR2385; Group 2, 200 ppm in feed, Trial Day 10): 19,336.8 C
- Average daily gain (PRRSV strain, VR2385; Group 2, 200 ppm in feed, Trial Day 14): 1.45 ± .06 lbs
- Average daily gain (PRRSV strain, VR2385; [4]): 1.59 ± .07 A, B lbs
- Mean real-time RT-PCR (PRRSV RNA copy numbers in serum) (PRRSV strain, VR2385; [4]): 78,804.81
- Mean real-time RT-PCR (PRRSV RNA copy numbers in serum) (PRRSV strain, VR2385; Group 2, 200 ppm in feed, Trial Day 21): 18,724.88
- Average daily gain (PRRSV strain, VR2385; [5]): 1.53 ± .07 lbs
- Mean real-time RT-PCR (PRRSV RNA copy numbers in serum) (PRRSV strain, VR2385; [5]): 892.36
- Mean maximum respiratory score (PRRSV strain, VR2385; Group 2, 200 ppm in feed): 0.6 ± 0.2 A
- Mean average rectal temperature (PRRSV strain, VR2385; Group 3, 600 ppm in feed): 103.8 ± 0.1
- Mean maximum rectal temperature (PRRSV strain, VR2385; Group 3, 600 ppm in feed): 105.8 ± 0.3 B
- Mean microscopic PRRSV lung lesion score (PRRSV strain, VR2385; Group 3, 600 ppm in feed, Necropsy 1 (Trial Day 17, 10 days post infection)): 2.0 ± 0.3 B
- Mean microscopic PRRSV lung lesion score (PRRSV strain, VR2385; Group 3, 600 ppm in feed, Necropsy 2 (Trial Day 28, 21 days post infection)): 1.5 ± 0.3
- Average daily gain (PRRSV strain, VR2385; Group 3, 600 ppm in feed, Trial Day 7): 1.83 + .16 lbs
- Mean real-time RT-PCR (PRRSV RNA copy numbers in serum) (PRRSV strain, VR2385; Group 3, 600 ppm in feed, Trial Day 10): 54,487.19 A, B
- Average daily gain (PRRSV strain, VR2385; Group 3, 600 ppm in feed, Trial Day 14): 1.47 ± .06 lbs
- Average daily gain (PRRSV strain, VR2385; [6]): 1.44 ± .04 A, B lbs
- Mean real-time RT-PCR (PRRSV RNA copy numbers in serum) (PRRSV strain, VR2385; [6]): 146,655.4
- Mean real-time RT-PCR (PRRSV RNA copy numbers in serum) (PRRSV strain, VR2385; Group 3, 600 ppm in feed, Trial Day 21): 30,260.69
- Average daily gain (PRRSV strain, VR2385; [7]): 1.47 ± .06 lbs
- Mean real-time RT-PCR (PRRSV RNA copy numbers in serum) (PRRSV strain, VR2385; [7]): 1,292.31
- Mean maximum respiratory score (PRRSV strain, VR2385; Group 3, 600 ppm in feed): 1.8 ± 0.3 B
- clinical disease and viremia associated with PRRSV infection (PRRSV strain, VR2385; lower doses (in feed)): appears to reduce clinical disease and viremia
- average intracellular concentration (pig white blood cells; 10 min): 57.4 μg/mg cells
- average intracellular:extracellular ratio (IC:EC) (pig white blood cells; 10 min): 8.68
- average intracellular:extracellular ratio (IC:EC) (pig white blood cells; 10 min, listed as Tylvalosin): 9
- intracellular concentration (pig white blood cells; 20 min): 61.45 μg/mg cells
